We go through four compounds from patent US9150521B2, “Methods of preventing and treating diabetes by inhibiting serotonin synthesis” (The Trustees of Columbia University in the City of New York, priority 2012, dated 2015).

Data set [1] deals with WT mice. The experiment in a line: Glucose tolerance test. Type of data set: in vivo. The text has this: (§1) Mice were housed under 12:12 light:dark cycle and chow and water were provided ad libitum. All animals were maintained according to NIH guidelines. The Htr2bflox/flox, Tph1flox/flox, and Villin-cre mice have been described previously (1). Alb-cre and aP2-cre mice were obtained from the Jackson Laboratory. For glucose tolerance tests mice were fasted overnight before i.p. injection of 2 g/kg body weight (BW) d-glucose in phosphate buffered saline (PBS) or 1 g/kg BW when mice were fed high fat diet. For pyruvate tolerance tests, mice were fasted overnight, injected i.p. with 2 g/kg BW sodium pyruvate in PBS. Glycerol tolerance test (4 g/kg BW) was performed after 4 h fasting. For insulin tolerance tests, mice were injected with 0.75 U/kg of insulin after 4 h fasting. Glucose was measured by tail vein bleeds at the indicated intervals using an ACCU-CHECK® glucometer. Measurement of free fatty acids (FFA) and glycerol were performed in plasma using a serum triglycerides determination kit (TR0100, Sigma) and a NEFA-HR(2) kit (WAKO Diagnostics). Plasma concentration of serotonin and glucagon were determined by Glucagon ELISA (Alpco, 48-GLUHU-E01) and Serotonin (Research) ELISA, (IBL-America, IB89540). Hyperinsulinemic-euglycemic clamp was performed in the University of Massachusetts Mouse Phenotyping Center, University of Massachusetts Medical School. […]

The conditions of data set [2]: reference 24 (Liu et al. 2008); cited from earlier work.
A further data set deals with TPH1 (Mus musculus, UniProt P17532). As to conditions: WT mice fed a high fat diet; LP533401 100 mg/kg/day by gavage.
Text: as §1

Data set [3] concerns WT mice. As to the kind of experiment: Insulin tolerance test. Type of data set: in vivo.
Text: as §1

For data set [4], the system named is WT mice. The experiment in a line: Plasma levels of glycerol and FFA in mice. It is filed as in vivo. The text has this: (§2) All animals were maintained according to NIH guidelines.
Data set [5] concerns WT mice. As to the kind of experiment: Pyruvate tolerance test (gluconeogenesis). It is filed as in vivo.
Text: as §1

The next data set concerns epididymal fat pads. The experiment in a line: In vitro lipolysis of isolated fat pads. Type of data set: cell-based, mouse. As for the experimental part:
(§3) In vitro lipolysis assay was performed as described (4). Briefly, epididymal fat pads were isolated and washed several times in Hank's Balanced Salt Solution (HBSS) (Sigma). Tissue pieces (˜25 mg) were incubated in Dulbecco's Modified Eagle's Medium (DMEM) medium (Invitrogen) containing 2% fatty acid free bovine serum albumin (Sigma) at 37° C. for 1 h. After this preincubation, the fat explants were transferred into identical, fresh medium containing serotonin (Sigma) or 10 μM forskolin as a positive control and incubated further for the indicated time-points at 37° C. Afterwards, aliquots of medium were taken for measurements of FFAs and glycerol using available kits (NEFA-HR(2), WAKO Diagnostics; serum triglycerides determination kit, TR0100, Sigma) and tissue was lysed with RIPA buffer for subsequent Western blot analysis or in TRIZOL® (Invitrogen) for gene expression analysis.

For data set [6], the system named is WT mice. The experiment in a line: Glycerol tolerance test in WT mice implanted with serotonin-releasing pellets. It is filed as in vivo. As to conditions: WT mice implanted with serotonin pellets vs placebo controls.
Text: as §2

The next data set deals with primary hepatocytes. As to the kind of experiment: In vitro glucose production in primary hepatocytes. Type of data set: cell-based, mouse. As to conditions: for conversion of glycerol to glucose in hepatocytes: primary hepatocytes, indicated doses of serotonin or 100 nM glucagon. As for the experimental part:
Production of glucose was assessed in primary, freshly isolated, attached hepatocytes. Briefly, cells were platted on 12 well plate format (200,000 cells per well). After isolation, the cells were allowed to attach and recover for 6 h in Williams E medium containing 10% fetal calf serum. Then they were washed and starved for 1 h in Dulbecco's Modified Eagle's DMEM without glucose and phenol red but with 2 mM L-glutamate and 0.5% BSA (D5030, Sigma). Then the cells were switched to the same medium or the same medium containing 10 mM glycerol and stimulated with the indicated substances for 6 h. Glucose concentration was determined in the medium using Amplex Red Glucose/Glucose Oxidase Assay Kit, (Invitrogen, A22189). Glucose production from glycerol was determined by subtracting glucose produced by the cells incubated without glycerol from this incubated with glycerol.

Data set [7] has as its system hormone sensitive lipase (HSL). The experiment in a line: Western blot of lipolytic enzymes in fat explants stimulated with serotonin. Type of data set: cell-based, mouse. As to conditions: 50 μM serotonin, Htr2b-dependent. Here is the method: as §3
Western blotting was performed according to standard procedures. Frozen tissues or cells were homogenized and lysed with RIPA buffer. Membranes were blocked and then incubated overnight with primary antibody in TBST-5% BSA, followed by incubation with appropriate HRP-conjugated secondary antibody. Signals were visualized with ECL. […]
(In western blotting, separated proteins are transferred to a membrane and probed.)

Data set [8] can be described thus: Plasma serotonin concentration in mice implanted with serotonin-releasing pellets. It is filed as in vivo. Conditions: WT mice, subcutaneous serotonin releasing pellets.
Text: as §2
This was done by implanting subcutaneously serotonin releasing pellets in WT mice. These pellets increased circulating levels of serotonin approximately two-fold (FIG. 5C).

The mark [9] stands for this setting: WT mice fed a normal diet, compared with Tph1gutΔ/Δ mice.
Where [10] appears, read: mice fed a high fat diet, LP533401 100 mg/kg/day.
Where [11] appears, read: WT mice fed a high fat diet, fasted for 4 h, LP533401 100 mg/kg/day.
Setting [12] is: Htr2b-deficient fat pad explants, 50 μM serotonin or 1 μM isoproterenol.
[13] abbreviates: epididymal fat pads treated with increasing amounts of serotonin.
The mark [14] stands for this setting: fed WT mice, subcutaneous serotonin releasing pellets.

TPH1, sequence (P17532 whole entry): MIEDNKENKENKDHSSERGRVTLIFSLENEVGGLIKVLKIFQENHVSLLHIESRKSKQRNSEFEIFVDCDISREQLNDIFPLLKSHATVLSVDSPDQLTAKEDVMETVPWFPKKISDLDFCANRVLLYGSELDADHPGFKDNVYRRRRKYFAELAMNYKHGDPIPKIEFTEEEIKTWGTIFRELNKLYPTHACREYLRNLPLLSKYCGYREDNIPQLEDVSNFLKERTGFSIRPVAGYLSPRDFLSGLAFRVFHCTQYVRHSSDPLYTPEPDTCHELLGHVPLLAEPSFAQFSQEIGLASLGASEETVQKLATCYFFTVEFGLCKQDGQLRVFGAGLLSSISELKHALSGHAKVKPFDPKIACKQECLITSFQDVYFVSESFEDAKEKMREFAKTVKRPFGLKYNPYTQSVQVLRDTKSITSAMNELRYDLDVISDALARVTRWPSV

For the compound `Nc1nc(OC(c2ccc(-c3cccc(F)c3)cc2)C(F)(F)F)cc(-c2ccc(C[C@H](N)C(=O)O)cc2)n1` (stereo partly drawn) [LP533401], the glucose tolerance result in the data set with WT mice [1] (setting [9]) is recorded as “improved”. Also, the glucose tolerance result with WT mice [1] (setting [10]) is given as “significantly improved”. In data set [2], the “crossing of the blood-brain barrier” value is “does not cross efficiently the blood-brain barrier”. The “reduction of circulating serotonin levels” value on TPH1 stood at 80%. Moreover, in the data set with WT mice [3] (setting [9]), the insulin tolerance result is listed as “improved”. Besides, the insulin sensitivity entry in the data set with WT mice [3] (setting [10]) is given as “normalized”. Besides, in the data set on WT mice [4] (setting [11]), the FFAs circulating levels result is reported as “normalization” and the glycerol circulating levels entry was “decrease”. Moreover, in the data set on WT mice [4] (WT mice fed a normal diet), the FFA levels result is reported as “decreased” and the glycerol levels entry is “decreased”. The gluconeogenesis rate entry in the data set with WT mice [5] (WT mice fed a normal diet) was “decreased”. Further, in the data set with WT mice [5] (setting [10]), the gluconeogenesis entry was “significantly improved”.
In the case of `CC(C)NCC(O)c1ccc(O)c(O)c1` (stereo not drawn) [isoproterenol], in the data set with epididymal fat pads (setting [12]), the “release of FFAs” value is given as “favored equally well” and the release of glycerol entry is “favored equally well”.
Turning to `NCCc1c[nH]c2ccc(O)cc12` [serotonin, 5-hydroxytryptamine], in the data set with epididymal fat pads (setting [12]), the “release of FFAs” value is reported as “failed to enhance” and the release of glycerol result was “failed to enhance”. In addition, in the data set with epididymal fat pads (setting [13]), the “release of FFAs” value is reported as “significantly increased” and the release of glycerol entry was “significantly increased”. For the same compound, in the data set on WT mice [6], the “blood glucose levels after glycerol” value is reported as “to a higher level than in controls”. Moreover, the “glucose production from glycerol” value in the data set with primary hepatocytes (Htr2bΔ/Δ hepatocytes, 50 μM serotonin) is reported as “could not induce”. The “conversion of glycerol to glucose in hepatocytes” value in the data set with primary hepatocytes is listed as “stimulated”. Besides, the “phosphorylation of hormone sensitive lipase (HSL) on serine residues 563 and 660” value in [7] is listed as “favored”. Moreover, the lipolysis entry in the data set on WT mice [4] (WT mice implanted with serotonin pellets, fasted for 4 h) is on record as “further enhanced”. In the data set with WT mice [4] (setting [14]), the “circulating levels of FFAs” value is on record as “significant increase” and the “circulating levels of glycerol” value was “significant increase”. The “increase of circulating levels of serotonin” value in data set [8] is on record as “approximately two-fold”.
Consider glucagon, for which the “conversion of glycerol to glucose in hepatocytes” value in the data set on primary hepatocytes was “stimulated”.
